The test system of data set [1] is BAS-CA1 synapses of CA1 pyramidal cells. Put plainly: BAS-CA1 postsynaptic potentials of CA1 pyramidal cells (Example 2). The format is cell-based, rat. Particulars: for effect of ACET itself on BAS-CA1 IPSPs / effect on CE action on the synaptic response: ACET 10 μM; for increase in evoked BAS-CA1 IPSPs: agent injected into the recorded pyramidal cell; for effect on CE action on BAS-CA1 PSP: agent injected into the recorded pyramidal cell before/with CE. The procedure:
Chemicals. Cloned CE (without the C-terminal P-loop) containing a His9 leader sequence was expressed in BL21 (DE3) Escherichia coli cells and purified by repeated affinity chromatography on Ni^2+-charged His-Bind columns (Novagen). […] Heat-inactivated proteins (100° C. for 5 min) were used as control.
Electrophysiology. […] CA1 pyramidal cells were recorded intracellularly with sharp electrodes. Intracellular microelectrode recording rather than whole-cell clamp avoids immediate internal perfusion of the test proteins and agents into the cells and marked run-down of γ-aminobutyrate (GABA)-evoked currents. […] A bipolar stimulating electrode (Teflon-insulated PtIr wire 25 μm in diameter) was also placed in the stratum pyramidale, within 200 μm from the recording electrode, for stimulation of basket interneurons (BAS) (50 μA). In some experiments, an additional bipolar electrode was placed in the stratum radiatum to stimulate the Schaffer collateral pathway (SCH). CA1 neurons with stable resting membrane potential more negative than −70 mV were studied. […] Signals were amplified with AxoClamp-2B amplifier and digitized and stored by using a DigiData 1200 with the PCLAMP6 data collection and analysis software (Axon Instruments) and a Pentium PC computer. Experiments in which >20% variations in the evoked inhibitory postsynaptic potentials (IPSPs) during a 10 min control period occurred were discarded. Percent baseline PSP at each minute was calculated by dividing its value by baseline PSP then multiplying the result by 100. Baseline PSP was the mean of 10 min before treatments in each cell. A negative sign was added to indicate its inhibitory nature so that −100% is baseline IPSP and a positive value indicates an excitatory response. Differences were considered significant at P<0.05.

Data set [2] deals with hippocampal CA1 pyramidal cells. In words: Intracellular recording of CA1 pyramidal cells: membrane potential θ, discharge, input resistance. The format is cell-based, rat. The procedure:
(§1) Hippocampal slice electrophysiology. CA1 field potentials were recorded with glass microelectrodes filled with an artificial cerebrospinal fluid solution (ACSF; see below). […] Whole slices were used unless otherwise indicated. […] Signals were amplified with AxoClamp-2B amplifier, digitized, stored, and analyzed using DigiData 1200 with P-Clamp6 software (Axon Instruments). Frequency and amplitude values of oscillation were taken from an average of five consecutive traces, all triggered at the same level of the same phase. Capacitance was optimally adjusted during discontinuous current-clamp mode before and after cell penetration to neutralize capacitance and reduce overshoot/undershoot errors. Discontinuous single-electrode voltage-clamp mode was used for voltage-clamping, employing a sampling rate of 3.0-5.0 kHz (30% duty cycle). Gain was usually set at 6-8 nA·mV^−1, slightly below the maximum value without causing overshoot or instability in the step response to a repetitive 10 mV step command. Bipolar stimulating electrodes (Teflon-insulated PtIr wire with 25 μm in diameter) were placed in s. pyramidale, within 200 μm, from the recording electrode, for stimulation of interneurons (50 μA, 50 μA) in the pyramidale layer. In some cases, the position of the stimulating electrodes was slightly varied within the CA1 cell layer to obtain monophasic postsynaptic responses. […] In some experiments, an additional stimulating electrode was placed in the stratum radiatum to stimulate the Schaffer collateral pathway (Sch). Experiments in which >20% variations in the evoked IPSP magnitudes occurred during the 10-min control period were discarded.

The conditions of data set [3]: rat, intraperitoneal dose; cited from earlier work.
Data set [4] can be described thus: Morris watermaze spatial memory task.
Data set [5] concerns GABAergic inputs to hippocampal CA1 pyramidal cells. Put plainly: Evoked GABAergic postsynaptic responses (IPSPs) of CA1 pyramidal cells. The format is cell-based, rat. The procedure:
as §1

The test system of data set [6] is SCH-CA1 excitatory postsynaptic potentials. In words: Schaffer collateral (SCH)-CA1 excitatory postsynaptic potentials. Format: cell-based, rat. The procedure:
Hippocampal slice electrophysiology. CA1 field potentials were recorded with glass microelectrodes filled with an artificial cerebrospinal fluid solution (ACSF; see below). Male Sprague-Dawley rats ([…]) were decapitated, and the brains were removed and cooled rapidly in an ACSF solution (˜4° C.), bubbled continuously with 95% O2-5% CO2. Hippocampi were sliced ([…]), placed in oxygenated ACSF (in mM: 124 NaCl, 3 KCl; 1.3 MgSO4; 2.4 CaCl2; 26 NaHCO3; 1.25 NaH2PO4; and 10 glucose), and perfused (2 ml/min) with the oxygenated ACSF in an interface chamber at 30-31 ° C. Whole slices were used unless otherwise indicated. CA1 pyramidal cells were recorded intracellularly (Sun, M. -K., Nelson, T. J., Xu, H., and Alkon, D. L. Calexcitin transformation of GABAergic synapses: from excitation filter to amplifier. Proc. Natl. Acad. Sci. USA 96: 7023-7028, 1999, for cell labeling) with sharp electrodes (3M KAc; tip resistance: 60-120 M; to prevent “run-down” of GABAergic responses in whole-cell recordings due to wash out of intracellular factors). […] Signals were amplified with AxoClamp-2B amplifier, digitized, stored, and analyzed using DigiData 1200 with P-Clamp6 software (Axon Instruments). […]
Electrophysiology. […] CA1 pyramidal cells were recorded intracellularly with sharp electrodes. […]

The subject of data set [7] is hippocampal CA1 field potential. In words: CA1 field potential θ oscillation in hippocampal slices. Format: cell-based, rat. The procedure:
as §1

In data set [8] the test system is SCH-CA1 excitatory postsynaptic potentials. Particulars: kynurenate 500 μM (Sun et al. 1999); cited from earlier work.
The test system of the next data set is RyR. Particulars: cited from earlier work.
Setting [9] is: 30 min, listed as Acetazolamide.
Setting [10] is: CA3 and dentate gyrus dissected away.
Where [11] appears, read: kynurenate 500 μM, 20-30 min, CCH-induced θ.

The text below walks through data of patent US6552053B2, “Controlling attention and memory by altering neuronal carbonic anhydrase activity” (The United States of America as represented by the …, priority 2000, dated 2003).

Each structure is given as a SMILES string. “Also recorded” adds a separate entry of the source. Counter-ions that a name gives are not always drawn.

For `CC(=O)Nc1nnc(S(N)(=O)=O)s1` [ACET, acetazolamide], the “effect on CE-induced synaptic transformation” value in data set [1] (ACET 1 μM) is “eliminates”. Also, the “BAS-CA1 IPSPs 30 min after CE injection in the presence of ACET” value in data set [1] (ACET 1 μM, 30 min, vs −100% control value) is −99.2±3.5%. In addition, in data set [1] (30 min), the “effect of ACET itself on BAS-CA1 IPSPs” value is given as “sufficient to transform the BAS-CA1 IPSPs” and the “effect on CE action on the synaptic response” value is on record as “abolishing effects of CE”. Besides, in [1] (setting [9]), the “effect of ACET itself on BAS-CA1 IPSPs” value is on record as “sufficient to maintain IPSPs” and the “effect on CE action on the synaptic response” value is listed as “eliminating transformative effects of calexcitin”. Moreover, in data set [2], the “effect on calexcitin-induced intracellular θ activity” value is given as “did not induce; also recorded: prevented” and the “induction of intracellular θ activity by CCH in presence of ACET” value is listed as “nor intracellular θ activity (n=10; FIG. 4B3) was induced”. Moreover, the “time to peak concentration in the blood” value in data set [3] was at most 1 h. Also, the “reduction in escape latency during training trials vs saline group” value in data set [4] (ACET 5 mg/0.5 ml/day ip (14-18 mg/kg), 65-70 min before first trial) is listed as “strikingly smaller reduction”. Further, the “quadrant preference 24 h after last training trial” value in [4] (ACET 5 mg/0.5 ml/day ip during training) is “no preference to a particular quadrant”. Moreover, in [4] (during the experimental periods), the “signs of discomfort or abnormal behaviors” value was “no rats showed any apparent sign of discomfort or abnormal behaviors”. The “memory retrieval: quadrant 4 preference vs saline control rats” value in data set [4] (single ACET injection (5 mg/0.5 ml) 24 h after last training trial of trained rats, test 65-70 min later) is on record as “no significant difference”. Moreover, the “evoked IPSP in the presence of ACET and CCH” value in data set [5] (bath ACET 1 μM, CCH 50 μM) is −7.7±1.0 mV.
With `O=C(O)CN(CC(=O)O)c1ccccc1OCCOc1ccccc1N(CC(=O)O)CC(=O)O` [BAPTA, 1,2-bis(2-aminophenoxy)ethane-N,N,N′,N′-tetraacetic acid], in data set [1], the “increase in evoked BAS-CA1 IPSPs” value is reported as 17.4%±3.9% and the “effect on CE action on BAS-CA1 PSP” value is listed as “not induced; also recorded: blocking”.
As for `C[N+](C)(C)CCOC(N)=O` [CCH, carbachol], in data set [2] (CCH), the “input resistance when θ activity became evident” value is 79.2±1.6 MΩ. In data set [2] (CCH 50 μM), the “θ oscillation of membrane potential (intracellular θ)” value was 7.8±1.1 mV. Further, in data set [2] (CCH, 5-min observing period), the averaged discharge rate is 2.7±0.3 spikes/s. Also, the “single-pulse SCH stimulation-evoked excitatory postsynaptic potential” value in [6] (CCH) is recorded as “not altered”. Besides, the “GABAergic postsynaptic response after CCH” value in data set [5] (30 min after CCH application, pre-CCH membrane potential maintained) is given as “+5.1±0.4 mV”. In addition, the “reversal potential of GABAergic postsynaptic responses” value in [5] (during CCH 50 μM) is −68.4±2.8 mV. The “response of pyramidal cells to stimulation of GABAergic inputs” value in [5] (in the presence of CCH, θ frequency stimulation) is “elicited instantly phase-locked firing of pyramidal cells”. Besides, the “evoked GABAergic current after CCH (inward current)” value in data set [5] (voltage clamp, CCH 50 μM) is recorded as 0.19±0.05 nA. For the same compound, in data set [7] (setting [10]), the “CCH-induced θ activity amplitude in CA1 minislices” value stood at 0.73±0.04 mV and the “CCH-induced θ activity frequency in CA1 minislices” value is recorded as 7.7±0.9 Hz. Besides, in data set [7] (CCH 50 μM, 20 min), the “duration of θ field potential (post-CCH recording period)” value is about 3 h. For the same compound, the “θ field potential peak amplitude” value in data set [7] (CCH 50 μM, 20 min, bath applied, whole slices) is reported as 0.75±0.03 mV. Further, in data set [7] (CCH 50 μM, 20 min, whole slices), the “θ field potential frequency” value is listed as 7.8±0.8 Hz.
In the case of `O=C(O)c1cc(=O)c2ccccc2[nH]1` [KYN, kynurenic acid], in [1] (KYN 500 μM), the “BAS-CA1 IPSP in the presence of KYN” value was −8.1±0.4 mV and the “reversal potential of BAS-CA1 PSPs in the presence of KYN” value was −78.9 mV. The “effect on evoked BAS-CA1 IPSPs” value in data set [1] (KYN 500 μM, 20 min) is given as “does not alter”. Also, in [6] (KYN 500 μM, 20 min), the “elimination of SCH-CA1 EPSPs” value is listed as over 90%. Besides, in data set [8], the “excitatory postsynaptic responses of CA1 pyramidal cells to SCH stimulation” value was “effectively abolished”. Besides, the “effect on evoked IPSPs” value in data set [5] (kynurenate 500 μM) is on record as “not altered”. In [7] (setting [11]), the “θ oscillation frequency in presence of kynurenate” value is recorded as “did not change” and the “θ oscillation magnitude in presence of kynurenate” value was “slightly reduced”.
As for `N.N.N.N.N.N.N.N.N.N.N.N.N.N.[Cl-].[Cl-].[Cl-].[Cl-].[Cl-].[Cl-].[O-2].[O-2].[Ru+3].[Ru+3].[Ru+4]` [RR, ruthenium red], in data set [1], the “increase in evoked BAS-CA1 IPSPs” value is 16.3%±4.0% and the “effect on CE action on BAS-CA1 PSP” value is recorded as “effectively blocked”. The IC50 entry in the data set on RyR is given as “nanomolar range”.
As to `CN1[C@@H]2CC[C@H]1C[C@@H](OC(=O)C(CO)c1ccccc1)C2` (stereo partly drawn) [atropine sulfate], in [7], the “effect on CCH-induced θ field activity” value was “blocked”.
Consider `NS(=O)(=O)c1nnc(NS(=O)(=O)c2ccccc2)s1` [benzolamide], for which, in [5] (intracellular application of benzolamide (0.1 mM in electrode)), the “effect on CCH-induced reversed GABAergic responses” value is recorded as “prevented”.
